Source: US20190031665A1, “DERIVATIVES OF PYRROLOIMIDAZOLE OR ANALOGUES THEREOF WHICH ARE USEFUL FOR THE TREATMENT OF INTER ALIA CANCER” (EMCURE PHARMACEUTICALS LIMITED, priority 2016, published 2019)

Tests used:
[1] = biological target: T1, human indoleamine 2,3-dioxygenase 1 (hIDO1) (Homo sapiens, UniProt P14902); assay: In-vitro human indoleamine 2,3-dioxygenase 1 (IDO1) enzyme assay; assay type: biochemical; conditions: for IC50: hIDO1 enzyme; for inhibition at 1 µM: hIDO1 enzyme at 1.0 μM concentration; for inhibition at 10 µM: hIDO1 enzyme at 10.0 μM concentration
T1 construct: His tag (N); purchased BPS Bioscience, San Diego, Calif., USA; host or cells: E. coli
Procedure, shortened: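 His-tagged hIDO1 (E. coli, 50 ng) incubated with 80 μM tryptophan, 10 mM ascorbate, 10 μM methylene blue, catalase and 0.01% Tween-20 in 50 mM sodium phosphate pH 6.5, 60 min, 37 °C. Piperidine converts N-formylkynurenine to fluorescent NFK-PIP (ex 400/em 500 nm); IC50 by nonlinear regression.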

[2] = biological target: T2, human tryptophan 2,3-dioxygenase (hTDO) (Homo sapiens, UniProt P48775); assay: In-vitro human tryptophan 2,3-dioxygenase (TDO) enzyme assay; assay type: biochemical; conditions: for inhibition at 1 µM: hTDO enzyme at 1.0 μM concentration
T2 construct: His tag (N); purchased BPS Bioscience, San Diego, Calif., USA; host or cells: E. coli
Procedure, shortened: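 N-His-tagged hTDO expressed in E. coli (125 ng) incubated with 200 μM L-tryptophan, 100 mM sodium phosphate pH 7.0, 0.01% Tween-20, 100 μM ascorbate, 60 min at 37 °C. Product converted with 200 mM piperidine (65 °C, 20 min) to NFK-PIP, fluorescence 400/500 nm; IC50 by nonlinear regression.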

T1 sequence (P14902 whole entry): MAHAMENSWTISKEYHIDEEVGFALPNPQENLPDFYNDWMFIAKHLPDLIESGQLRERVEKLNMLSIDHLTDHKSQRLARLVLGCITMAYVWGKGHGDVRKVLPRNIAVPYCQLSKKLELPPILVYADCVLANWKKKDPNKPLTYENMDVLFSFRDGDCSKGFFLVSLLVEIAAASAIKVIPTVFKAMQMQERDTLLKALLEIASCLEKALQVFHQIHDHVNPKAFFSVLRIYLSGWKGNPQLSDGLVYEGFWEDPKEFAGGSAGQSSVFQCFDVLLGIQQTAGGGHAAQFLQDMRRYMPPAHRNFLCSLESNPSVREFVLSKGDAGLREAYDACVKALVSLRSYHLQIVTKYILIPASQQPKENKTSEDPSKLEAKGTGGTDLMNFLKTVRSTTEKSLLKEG
T2 sequence (P48775 whole entry): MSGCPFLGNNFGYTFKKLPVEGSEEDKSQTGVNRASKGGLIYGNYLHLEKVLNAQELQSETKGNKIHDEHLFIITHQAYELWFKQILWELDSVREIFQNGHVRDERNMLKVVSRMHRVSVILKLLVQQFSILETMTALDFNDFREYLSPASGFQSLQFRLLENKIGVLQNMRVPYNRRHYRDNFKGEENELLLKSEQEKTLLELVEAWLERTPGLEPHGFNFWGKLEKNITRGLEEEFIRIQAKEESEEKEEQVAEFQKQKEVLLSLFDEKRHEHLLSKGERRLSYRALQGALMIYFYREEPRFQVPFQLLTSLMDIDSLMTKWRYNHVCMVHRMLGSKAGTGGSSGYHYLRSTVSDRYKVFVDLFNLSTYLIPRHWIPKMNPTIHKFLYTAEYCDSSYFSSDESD

SMILES | IC50 [1] [nM] | inhibition at 1 µM [1] [%] | inhibition at 10 µM [1] [%] | inhibition at 1 µM [2] [%] | inhibition at 10 µM ([2]; hTDO enzyme at 10.0 μM concentration) [%]
CC1=C(c2ccccc2)C(CC(O)C2CCCCC2)n2cncc21 (centres unmarked) [Example 89, 1-Cyclohexyl-2-(7-methyl-6-phenyl-5H-pyrrolo[1,2-c]imidazol-5-yl)-ethane-1-ol] | < 500 | ≥ 50 | ≥ 50 | ≥ 50 | ≥ 50
CC1=C(c2cccc(Cl)c2)C(CC(=O)C2CCCCC2)n2cncc21 (centres unmarked) [Example 95] | – | ≤ 50 | ≥ 50 | ≤ 50 | –
CC1=C(c2cccc(Cl)c2)C(CC(O)C2CCCCC2)n2cncc21 (centres unmarked) [Example 96] | – | ≤ 50 | ≥ 50 | ≤ 50 | –
CC1=C(c2ccccc2)C(CC(=O)C2CCC(O)CC2)n2cncc21 (centres unmarked) [Example 99] | – | ≤ 50 | ≥ 50 | ≥ 50 | –
CC1=C(c2ccccc2)C(CC(=O)C2CCOCC2)n2cncc21 (centres unmarked) [Example 100] | – | ≤ 50 | ≥ 50 | ≥ 50 | –
CC1=C(c2ccccc2F)C(CC(=O)C2CCCCC2)n2cncc21 (centres unmarked) [Example 101] | – | ≤ 50 | ≥ 50 | ≥ 50 | –
O=C(CC1C(c2ccccc2)=C(c2ccccc2)c2cncn21)C1CCCCC1 (centres unmarked) [Example 102] | – | ≤ 50 | ≤ 50 | ≤ 50 | –
OC(CC1C(c2ccccc2)=C(c2ccccc2)c2cncn21)C1CCCCC1 (centres unmarked) [Example 103] | – | ≤ 50 | ≤ 50 | ≤ 50 | –
COc1ccc(C2=C(C)c3cncn3C2CC(=O)C2CCCCC2)cc1 (centres unmarked) [Example 104] | – | ≤ 50 | ≤ 50 | ≤ 50 | –
CC1=C(c2ccccc2C)C(CC(O)C2CCCCC2)n2cncc21 (centres unmarked) [Example 105] | – | ≤ 50 | ≥ 50 | ≤ 50 | –
CC(C)C1=C(c2ccccc2)C(CC(=O)C2CCCCC2)n2cncc21 (centres unmarked) [Example 106] | – | ≤ 50 | ≤ 50 | ≤ 50 | –
CC1=C(c2ccccc2)C(CC(=O)C23CC4CC(CC(C4)C2)C3)n2cncc21 (centres unmarked) [Example 107] | – | ≤ 50 | ≥ 50 | ≥ 50 | –
CC1=C(c2ccccc2)C(CC(O)C23CC4CC(CC(C4)C2)C3)n2cncc21 (centres unmarked) [Example 108] | – | ≥ 50 | ≥ 50 | ≥ 50 | –
CC1=C(c2ccccc2)C(CC(=O)C2CCC(C(=O)Nc3ccccc3)CC2)n2cncc21 (centres unmarked) [Example 109, 4-(2-(7-methyl-6-phenyl-5H-pyrrolo[1,2-c]imidazol-5-yl)acetyl)-N-phenylcyclohexane-1-carboxamide] | – | ≤ 50 | ≥ 50 | ≥ 50 | –
CC1=C(c2ccccc2)C(CC(=O)C2CCC(C(=O)Nc3ccc(F)cc3F)CC2)n2cncc21 (centres unmarked) [Example 110] | – | ≤ 50 | ≥ 50 | ≥ 50 | –
CC1=C(c2ccccc2)C(C[C@H](O)C2CCC(C(=O)Nc3ccccc3)CC2)n2cncc21 (some centres unmarked) [Example 112] | < 500 | ≥ 50 | ≥ 50 | ≥ 50 | –
CC1=C(c2ccccc2)C(CC(=O)C2CCCN2S(=O)(=O)c2ccc(C)cc2)n2cncc21 (centres unmarked) [Example 113] | – | ≤ 50 | ≥ 50 | ≥ 50 | –
CC1=C(c2ccccc2)C(C[C@@H](O)C2CCCN2S(=O)(=O)c2ccc(C)cc2)n2cncc21 (some centres unmarked) [Example 114] | – | ≤ 50 | ≥ 50 | ≥ 50 | –
CC1=C(c2ccccc2)C(CC(=O)C2CCCN2C(=O)c2ccccc2)n2cncc21 (centres unmarked) [Example 115] | – | ≤ 50 | ≤ 50 | ≤ 50 | –
CC1=C(c2ccccc2)C(C[C@@H](O)C2CCCN2C(=O)c2ccccc2)n2cncc21 (some centres unmarked) [Example 116] | – | ≤ 50 | ≤ 50 | ≤ 50 | –
CC1=C(c2ccccc2)C(CC(=O)C2CCC(C(=O)Nc3ccncc3)CC2)n2cncc21 (centres unmarked) [Example 117] | > 500 | ≥ 50 | ≥ 50 | ≥ 50 | –
CC1=C(c2ccccc2)C(CC(=O)C2CCC(C(=O)Nc3ccc(Cl)cc3C)CC2)n2cncc21 (centres unmarked) [Example 118] | – | ≥ 50 | ≥ 50 | ≥ 50 | –

SMILES | IC50 [1] [nM] | inhibition at 1 µM [1] [%] | inhibition at 10 µM [1] [%] | inhibition at 1 µM [2] [%] | inhibition at 10 µM ([2]; hTDO enzyme at 10.0 μM concentration) [%]
CC1=C(c2ccccc2)C(C[C@H](O)C2CCC(C(=O)Nc3ccncc3)CC2)n2cncc21 (some centres unmarked) [Example 119] | < 500 | ≥ 50 | ≥ 50 | ≥ 50 | –
CC1=C(c2ccccc2)C(C[C@H](O)C2CCC(C(=O)Nc3ccc(Cl)cc3C)CC2)n2cncc21 (some centres unmarked) [Example 120] | < 500 | ≥ 50 | ≥ 50 | ≥ 50 | –
CC1=C(c2ccccc2)C(CC(=O)C2CCC(C(=O)NC3CCCCC3)CC2)n2cncc21 (centres unmarked) [Example 123] | – | ≤ 50 | ≥ 50 | ≥ 50 | –
CC1=C(c2ccccc2)C(CC(=O)C2CCC(C(=O)N3CCC(=O)CC3)CC2)n2cncc21 (centres unmarked) [Example 124] | – | ≤ 50 | ≥ 50 | ≤ 50 | –
CC1=C(c2ccccc2)C(C[C@H](O)C2CCC(C(=O)N3CCC(O)CC3)CC2)n2cncc21 (some centres unmarked) [Example 125] | – | ≥ 50 | ≥ 50 | ≤ 50 | –
CC1=C(c2ccccc2)C(C[C@H](O)C2CCC(C(=O)NC3CCCCC3)CC2)n2cncc21 (some centres unmarked) [Example 126] | < 500 | ≥ 50 | ≥ 50 | ≥ 50 | –
CC1=C(c2ccccc2)C(CC(O)C2CCC(O)CC2)n2cncc21 (centres unmarked) [Example 127] | – | ≥ 50 | – | ≥ 50 | –
CC1=C(c2ccccc2)C(C[C@H](O)C2CCC(C(=O)Nc3cccnc3)CC2)n2cncc21 (some centres unmarked) [Example 128] | < 500 | ≥ 50 | ≥ 50 | ≥ 50 | –
CC1=C(c2ccccc2)C(CC(O)[C@H]2CC[C@H](C(=O)N[C@H]3CC[C@H](O)CC3)CC2)n2cncc21 (some centres unmarked) [Example 129] | > 500 | ≥ 50 | ≥ 50 | ≥ 50 | –
CC1=C(c2ccccc2)C(CC(=O)C2CCC(C(=O)O)CC2)n2cncc21 (centres unmarked) [Example 130] | – | ≤ 50 | ≤ 50 | ≤ 50 | –
COC(=O)[C@H]1CC[C@@H]([C@@H](O)CC2C(c3ccccc3)=C(C)c3cncn32)CC1 (some centres unmarked) [Example 131] | < 500 | ≥ 50 | ≥ 50 | ≥ 50 | –
CC1=C(c2ccccc2)C(C[C@H](O)C2CCC(C(=O)O)CC2)n2cncc21 (some centres unmarked) [Example 133] | – | ≤ 50 | ≥ 50 | ≥ 50 | –
CNC(=O)C1CCC(C(=O)CC2C(c3ccccc3)=C(C)c3cncn32)CC1 (centres unmarked) [Example 135] | – | ≤ 50 | ≤ 50 | ≥ 50 | –
CC1=C(c2ccccc2)C(CC(=O)C2CCC(c3ccccc3)CC2)n2cncc21 (centres unmarked) [Example 136] | – | ≥ 50 | ≥ 50 | ≥ 50 | –
CC1=C(c2ccccc2)C(CC(O)C2CCN(C(=O)OCc3ccccc3)CC2)n2cncc21 (centres unmarked) [Example 137, 4-[1-Hydroxy-2-(7-methyl-6-phenyl-5H-pyrrolo[1,2-c]imidazol-5-yl)-ethyl]-piperidine-1-carboxylic acid benzyl ester] | < 500 | ≥ 50 | ≥ 50 | ≥ 50 | –
CC1=C(c2ccccc2)C(CC(=O)C2CCN(C(=O)Cc3ccccc3F)CC2)n2cncc21 (centres unmarked) [Example 138, 2-(2-Fluorophenyl)-1-(4-(2-(7-methyl-6-phenyl-5H-pyrrolo[1,2-c]imidazol-5-yl)acetyl)piperidin-1-yl)ethan-1-one] | – | ≥ 50 | ≥ 50 | ≥ 50 | –
CC1=C(c2ccccc2)C(CC(O)C2CCN(C(=O)Cc3ccccc3F)CC2)n2cncc21 (centres unmarked) [Example 139, 2-(2-Fluorophenyl)-1-(4-(1-hydroxy-2-(7-methyl-6-phenyl-5H-pyrrolo[1,2-c]imidazol-5-yl)ethyl)piperidin-1-yl)ethan-1-one] | < 500 | ≥ 50 | ≥ 50 | ≥ 50 | –
CC1=C(c2ccccc2)C(CC(=O)C2CCN(Cc3ccccc3)CC2)n2cncc21 (centres unmarked) [Example 140] | – | ≤ 50 | ≤ 50 | ≤ 50 | –
CC1=C(c2ccccc2)C(CC(O)C2CCN(Cc3ccccc3)CC2)n2cncc21 (centres unmarked) [Example 141] | – | ≤ 50 | ≤ 50 | ≤ 50 | –
CC1=C(c2ccccc2)C(CC(=O)C2CCN(C(=O)c3ccccc3)CC2)n2cncc21 (centres unmarked) [Example 142] | – | ≤ 50 | ≥ 50 | ≥ 50 | –
CC1=C(c2ccccc2)C(CC(=O)C2CCN(S(=O)(=O)c3ccccc3)CC2)n2cncc21 (centres unmarked) [Example 143] | – | ≤ 50 | ≥ 50 | ≥ 50 | –
